Patent publication EP0338092A1, “ANTI-HIV AGENT” (Chugai Seiyaku Kabushiki Kaisha, priority 1987, dated 1989)

Test system: HIV
Assay: Detection of viral antigen (indirect fluorescent antibody technique) in HIV-infected Molt-4 clone No. 8 cells
Assay type: cell-based
Procedure: The sodium salts of oligosaccharide poly-sulfate esters prepared in Preparation Examples 1 - 3 and 5 - 7 were used as test samples. Molt-4 clone No. 8 cells were infected with a virus obtained from Molt-4/HIV producing cell.
The experiment was conducted in accordance with the method of Itoh et al. described in Antiviral Research, 7 (1987), 361 - 367.
The proportions of HIV antigen positive cells were determined by an indirect fluorescent antibody technique using an anti-HIV antibody positive serum as antibody against the infected cells. The results are shown in Tables 2 and 3, in which each of the figure listed denotes the percentage of infected cells taken by HIV antigen positive cells.

[1] = Table 3, amount of sample added 7.8 µg/ml
[2] = Table 3, amount of sample added 32 µg/ml
[3] = Table 3, amount of sample added 125 µg/ml
[4] = Table 3, amount of sample added 500 µg/ml
[5] = Table 3, amount of sample added 1000 µg/ml

Substance	percentage of infected cells taken by HIV antigen positive cells [1] [%]	percentage of infected cells taken by HIV antigen positive cells [2] [%]	percentage of infected cells taken by HIV antigen positive cells [3] [%]	percentage of infected cells taken by HIV antigen positive cells [4] [%]	percentage of infected cells taken by HIV antigen positive cells [5] [%]
sodium salt of maltoheptaose sulfate ester [compound 7]	18.2	4.8	4.4	4.1	3.2
sodium salt of maltopentaose sulfate ester [compound 6]	24.1	6.4	6.0	4.4	4.6
sodium salt of maltohexaose sulfate ester [compound 5]	20.3	5.3	5.8	3.6	4.4
